From patent publication US20240327411A1, “SIRT6 ACTIVATORS” (The Board of Regents of The University of Texas System, priority 2022, published 2024)
“Also recorded” adds a separate entry of the source.

Assays:
[1] = system: retinal precursor cells (R28); experiment: MTT cell viability assay in R28 cells; format: cell-based; settings: 24 hours
Procedure: FIGS. 5A-5C: FIGS. 5A-5C display the deacetylation effect and cytotoxicity of selected compounds. […] Nucleosomes extracted from HEK293T cells were incubated with 100 μM of selected compounds or Vehicle at 30° C. for 60 minutes. Acetylated H3K9 and total H3 were detected by Western blot. The level of acetylated H3K9 was quantified by Image Lab software. FIGS. 5B and 5C show the cell viability which was assessed by MTT assay. R28 cells were treated with 30 μM or 100 μM compounds for 24 hours. Data were presented as mean±SEM. The experiment was repeated at least three times. ***p<0.001; ****p<0.0001.
R28 cells were seeded in 96 well plates at a density of 1×10^4/well overnight, then treated with compounds for 24 h. MTT (MilliporeSigma) was added to cells (20 μL/well) and incubated for 3.5 h. After medium was removed, 100 μL dimethyl sulfoxide (DMSO) was added into each well. Absorbance was measured at 540 nm using a microplate reader.

Sirt6 [2] = target: T1, Sirt6 (Homo sapiens, UniProt Q8N6T7); experiment: Nucleosome test: Sirt6-dependent H3K9 deacetylation of nucleosomes from HEK293T cells, Western blot; format: biochemical; settings: 100 μM, 30° C., 60 minutes
Procedure: . Nucleosomes extracted from HEK293T cells were incubated with 100 μM of selected compounds or Vehicle at 30° C. for 60 minutes. Acetylated H3K9 and total H3 were detected by Western blot. The level of acetylated H3K9 was quantified by Image Lab software. FIGS. 5B and 5C show the cell viability which was assessed by MTT assay. R28 cells were treated with 30 μM or 100 μM compounds for 24 hours. Data were presented as mean±SEM. The experiment was repeated at least three times. ***p<0.001; ****p<0.0001.
Next, effects of selected compounds were explored for Sirt6-dependent deacetylation of complete nucleosomes extracted from human embryonic kidney (HEK) 293T cells, as nucleosomes represent more physiologically relevant substrates. […]. Briefly, HEK 293T cells in 100 mm dish were lysed with lysis buffer supplemented with PIC and PMSF for 30 min. After centrifugation for 10 min at 5000 rpm at 4° C., supernatant was removed and nuclei pellet was resuspended with digestion buffer supplemented with PIC and PMSF for 5 min at 37° C. Working enzymatic sharing cocktail was added to digest the chromatin, and EDTA was added after incubation to stop the digestion. Digested nucleosome was obtained in the supernatant after centrifugation for 10 min at 15000 rpm at 4° C. and the concentration was quantified by measuring the absorbance at […]. 20 μg nucleosome was incubated in solution (1× buffer, 0.5 μL recombinant Sirt6 and […] NAD, from SIRT6 ACTIVITY ASSAY KIT) for 60 min. To test the effects of the compounds on Sirt6 activity, corresponding compound or DMSO control was added before incubation. The reaction mixture was analyzed by Western blot.
Proteins were extracted from cells with PIERCE RIPA BUFFER (89901, ThermoFisher Scientific), and protein concentration was determined using PIERCE BCA PROTEIN ASSAY KIT (23225, ThermoFisher Scientific). Equal amounts of protein were loaded and separated by SDS-PAGE gel. Next, separated proteins were transferred onto Nitrocellulose Blotting Membranes (A29457237, GE Healthcare Life science), and then the membranes were blocked by 5% non-fat dry milk. After incubation with corresponding primary antibodies against H3K9ac, H3 and Sirt6 at a 1:1000 dilution, or α-tubulin at a 1:5000 dilution, goat anti-mouse or goat anti-rabbit secondary antibodies at a 1:5000 dilution were applied. Finally, membranes were incubated with enhanced chemiluminescent and protein bands were detected by CHEMIDOC imaging system (Bio-Rad). Image-Lab software was used to analyze the intensities of the protein bands.

SARS-CoV-2 = experiment: microbe, parasite or virus in culture; format: cell-based
BV2 cells = experiment: LPS-induced inflammatory gene mRNA expression in BV2 cells, q-PCR; format: cell-based, murine; settings: for LPS-induced expression of IL-1β, IL-6, MCP-1, and TNFα / LPS-induced IL-1β, IL-6, and MCP-1 response / LPS-induced iNOS and CXCL10 expression / VCAM-1 induction / ICAM-1 induction: BV2 cells, 100 ng/mL LPS 6 hours, mRNA; for LPS-induced expression of IL-1β, IL-6, MCP-1, and TNFα: 30 μM pretreatment 30 minutes; for LPS-induced IL-1β, IL-6, and MCP-1 response / LPS-induced iNOS and CXCL10 expression / VCAM-1 induction / ICAM-1 induction: 30 μM; for LPS-induced proinflammatory cytokine/chemokine production: summary statement
A549-hACE2 cells = experiment: Cell viability assay in A549-hACE2 cells; settings: 50 μM, 48 h
Sirt6 [3] = target: T1, Sirt6; experiment: Sirt6-dependent peptide deacetylation, FLUOR DE LYS / Sirt6 fluorometric activity kit; format: biochemical; settings: mean ± SD, at least two independent experiments; for Activation Fold 30 μM: compound at 30 μM; for Activation Fold 100 μM: compound at 100 μM
Procedure: (§1) Sirt6/Sirt1/Sirt2/Sirt3 activity was tested by Activity Assay Kits (Abcam) according to the manufacturer's instruction with minor modification. […] All experiments were conducted at room temperature.

Sirt6 [4] = target: T1, Sirt6; settings: literature value, cited from earlier work
H1299 cells [5] = experiment: Colony formation assay in H1299 cells; format: cell-based; settings: 30 μM, one week
H1299 cells [6] = experiment: Acetylated H3K9 / total H3 in H1299 cells, Western blot; format: cell-based; settings: 30 μM, 24 hours
PLC/PRF/5 cells [7] = experiment: Colony formation assay in PLC/PRF/5 cells; format: cell-based; settings: 30 μM, one week
Sirt1 = target: T2, Sirt1 (Homo sapiens, UniProt Q96EB6); experiment: Sirt1 deacetylation activity assay kit; settings: time course, FIG. 3
T2 sequence (Q96EB6 1-747): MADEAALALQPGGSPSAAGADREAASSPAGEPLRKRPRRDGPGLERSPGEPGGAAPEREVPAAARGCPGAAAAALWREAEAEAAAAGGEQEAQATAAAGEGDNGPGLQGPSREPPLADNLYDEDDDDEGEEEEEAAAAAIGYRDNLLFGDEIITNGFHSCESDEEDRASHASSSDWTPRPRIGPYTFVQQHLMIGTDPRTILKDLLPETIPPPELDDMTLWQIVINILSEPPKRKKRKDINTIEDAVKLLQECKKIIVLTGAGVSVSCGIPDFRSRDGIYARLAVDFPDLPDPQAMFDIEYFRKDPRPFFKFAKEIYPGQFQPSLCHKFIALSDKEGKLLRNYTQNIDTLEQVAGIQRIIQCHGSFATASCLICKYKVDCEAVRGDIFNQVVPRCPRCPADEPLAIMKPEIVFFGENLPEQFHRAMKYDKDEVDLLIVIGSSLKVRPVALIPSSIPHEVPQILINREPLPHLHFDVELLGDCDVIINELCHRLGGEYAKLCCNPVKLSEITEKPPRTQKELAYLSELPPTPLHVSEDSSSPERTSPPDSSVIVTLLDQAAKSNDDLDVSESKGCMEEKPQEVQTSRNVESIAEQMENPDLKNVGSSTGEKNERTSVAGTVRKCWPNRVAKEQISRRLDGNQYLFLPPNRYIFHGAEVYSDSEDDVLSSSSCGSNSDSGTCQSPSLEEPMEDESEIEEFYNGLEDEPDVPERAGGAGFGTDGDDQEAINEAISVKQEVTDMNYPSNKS
Procedure: as §1

PLC/PRF/5 cells [8] = experiment: Acetylated H3K9 / total H3 in PLC/PRF/5 cells, Western blot; format: cell-based; settings: 30 μM, 24 hours

T1 sequence (Q8N6T7 whole entry): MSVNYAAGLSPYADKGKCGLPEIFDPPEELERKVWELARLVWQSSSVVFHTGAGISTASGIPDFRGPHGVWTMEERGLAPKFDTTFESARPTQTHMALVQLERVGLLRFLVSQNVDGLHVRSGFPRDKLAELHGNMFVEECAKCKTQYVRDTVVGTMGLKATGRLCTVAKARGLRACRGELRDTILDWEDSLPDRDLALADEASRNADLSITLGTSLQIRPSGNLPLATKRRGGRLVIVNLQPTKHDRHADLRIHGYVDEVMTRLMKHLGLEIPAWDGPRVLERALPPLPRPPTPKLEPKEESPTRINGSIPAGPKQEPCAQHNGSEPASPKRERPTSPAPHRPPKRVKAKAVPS

Compound	toxicity on retinal precursor cells (R28) ([1]; 30 μM)	acetylation of H3K9 in the nucleosome test (Sirt6 [2])	potency in inhibiting SARS-CoV-2 infection (in words) (SARS-CoV-2)	LPS-induced expression of IL-1β, IL-6, MCP-1, and TNFα (BV2 cells)	LPS-induced IL-1β, IL-6, and MCP-1 response (BV2 cells)	LPS-induced iNOS and CXCL10 expression (BV2 cells)	LPS-induced proinflammatory cytokine/chemokine production (BV2 cells)	cytotoxicity at the highest tested concentration (A549-hACE2 cells)	Activation Fold 30 μM (Sirt6 [3]) [fold]	Activation Fold 100 μM (Sirt6 [3]) [fold]	ICAM-1 induction (BV2 cells)	other results
OC1CN(CCN2CCN(c3ncccc3C3Nc4ccccc4-n4cccc43)CC2)C1 (stereo not shown) [Compound 46, 1-(2-(4-(3-(4,5-Dihydropyrrolo[1,2-a]quinoxalin-4-yl)pyridin-2-yl)piperazin-1-yl)ethyl)azetidin-3-ol]	no obvious toxicity	significantly decreased the acetylation of H3K9	micromolar potency	strongly inhibited	almost reversed	significantly repressed	strongly repressed	none of these compounds exhibited significant cytotoxicity	3.30 ± 0.11	6.30 ± 0.25		VCAM-1 induction (BV2 cells): obviously inhibit
CCCCCCCC/C=C\CCCCCCCC(=O)NCCO [Oleoylethanolamide]												maximum activation (Emax) of Sirt6 deacetylation (Sirt6 [4]): 2.1 fold
COCCN1CCN(c2ncccc2C2Nc3ccccc3-n3cccc32)CC1 (stereo not shown) [Compound 36, 4-(2-(4-(2-Methoxyethyl)piperazin-1-yl)pyridin-3-yl)-4,5-dihydropyrrolo[1,2-a]quinoxaline]	no obvious toxicity	significantly decreased the acetylation of H3K9	micromolar potency	strongly inhibited			strongly repressed	none of these compounds exhibited significant cytotoxicity	3.17 ± 0.21	6.06 ± 0.13		colony formation (H1299 cells [5]): significantly inhibited; also recorded: about half; Sirt6 deacetylation of H3K9 (acetylated H3K9 to total H3) (H1299 cells [6]): significantly activated Sirt6 to deacetylate H3K9; decrease of acetylated H3K9 when Sirt6 was knockdown by siRNA (H1299 cells [6]; Sirt6 siRNA): abolished; toxicity on retinal precursor cells (R28) ([1]; 100 μM): no obvious toxicity; colony formation (PLC/PRF/5 cells [7]): significantly inhibited; also recorded: about half; effect on Sirt1 deacetylation (Sirt1): no significant effects; Sirt6 deacetylation of H3K9 (acetylated H3K9 to total H3) (PLC/PRF/5 cells [8]): significantly activated Sirt6 to deacetylate H3K9; decrease of acetylated H3K9 when Sirt6 was knockdown by siRNA (PLC/PRF/5 cells [8]; Sirt6 siRNA): abolished
c1ccc2c(c1)NC(c1cccnc1N1CCN(CCN3CCCC3)CC1)c1cccn1-2 (stereo not shown) [Compound 47, 4-(2-(4-(2-(Pyrrolidin-1-yl)ethyl)piperazin-1-yl)pyridin-3-yl)-4,5-dihydropyrrolo[1,2-a]quinoxaline]	no obvious toxicity	no effect		strongly inhibited	almost reversed	significantly repressed	strongly repressed		4.80 ± 0.19	5.38 ± 0.29	slight inhibition	VCAM-1 induction (BV2 cells): obviously inhibit
O=C(O)c1ccc2c(c1)C(=O)N(c1ccc(N(C(=O)c3c(Cl)cc(Cl)cc3Cl)C(=O)c3c(Cl)cc(Cl)cc3Cl)c(Cl)c1)C2=O [CL5D]												Sirt6 activation at 3 μM (Sirt6 [4]; concentration of 3 μM): 4 fold
OC1CN(c2ncccc2C2Nc3ccccc3-n3cccc32)C1 (stereo not shown) [Compound 17, 1-(3-(4,5-Dihydropyrrolo[1,2-a]quinoxalin-4-yl)pyridin-2-yl)azetidin-3-ol]										1.47 ± 0.10		
OCCN1CCN(c2ncccc2C2Nc3ccccc3-n3cccc32)CC1 (stereo not shown) [Compound 35, 2-(4-(3-(4,5-Dihydropyrrolo[1,2-a]quinoxalin-4-yl)pyridin-2-yl)piperazin-1-yl)ethan-1-ol]	no obvious toxicity	significantly decreased the acetylation of H3K9	micromolar potency	strongly inhibited			strongly repressed	none of these compounds exhibited significant cytotoxicity	2.92 ± 0.06	5.72 ± 0.69	slight inhibition	colony formation (H1299 cells [5]): only a slight inhibitory effect; Sirt6 deacetylation of H3K9 (acetylated H3K9 to total H3) (H1299 cells [6]): no obvious influence; toxicity on retinal precursor cells (R28) ([1]; 100 μM): no obvious toxicity; colony formation (PLC/PRF/5 cells [7]): only a slight inhibitory effect; effect on Sirt1 deacetylation (Sirt1): no significant effects; Sirt6 deacetylation of H3K9 (acetylated H3K9 to total H3) (PLC/PRF/5 cells [8]): no obvious influence
c1ccc2c(c1)NC(c1cccnc1N1CCN(CCn3ccnc3)CC1)c1cccn1-2 (stereo not shown) [Compound 50, 4-(2-(4-(2-(1H-Imidazol-1-yl)ethyl)piperazin-1-yl)pyridin-3-yl)-4,5-dihydropyrrolo[1,2-a]quinoxaline]	no obvious toxicity	significantly decreased the acetylation of H3K9		strongly inhibited	almost reversed	significantly repressed	strongly repressed		3.34 ± 0.19	6.29 ± 0.02	slight inhibition	
